SMILES strings stand for the structures.

Experimental findings from patent publication US20140163082A1, “PYRAZOLYL COMPOUNDS FOR USE IN REVERSING REACTIVE GLIOSIS” (priority 2011, published 2014) are described below.

In one data set the test system is R28 cells. Kind of data set: Viability assay (DAPI exclusion test), R28. To be noted: R28 cells in culture after incubation.
The test system of the next data set is rMC-1 cells. Description: Viability assay (DAPI exclusion test), rMC-1. Particulars: rMC-1 cells in culture after incubation.

As for `COc1cccc2c1C(=O)c1c(O)c3c(c(O)c1C2=O)C[C@@](O)(C(=O)CO)C[C@@H]3O[C@H]1C[C@H](N)[C@H](O)[C@H](C)O1` [Doxorubicin], the “cell viability (DAPI exclusion)” value in the data set on R28 cells and in the data set with rMC-1 cells was “significant nonviability staining” each time.
